From US11702404B2, “GLP-1R modulating compounds” (priority 2019, dated 2023)
Read-outs that look alike come from different tables or passages of the source.

Key:
GLP-1R = GLP-1R (Homo sapiens, UniProt P43220); assay: GLP-1R activation: cAMP increase in CHO cells stably expressing GLP-1R; format: cell-based
[1] = Microsomal stability, human liver microsomes (predicted hepatic clearance); details: predicted from in vitro microsomal stability data
[2] = cAMP increase, CHO cells stably expressing GLP-1R, 10 point dose response, 30 minutes incubation, read-out: EC50

Chain of GLP-1R (P43220 24-463): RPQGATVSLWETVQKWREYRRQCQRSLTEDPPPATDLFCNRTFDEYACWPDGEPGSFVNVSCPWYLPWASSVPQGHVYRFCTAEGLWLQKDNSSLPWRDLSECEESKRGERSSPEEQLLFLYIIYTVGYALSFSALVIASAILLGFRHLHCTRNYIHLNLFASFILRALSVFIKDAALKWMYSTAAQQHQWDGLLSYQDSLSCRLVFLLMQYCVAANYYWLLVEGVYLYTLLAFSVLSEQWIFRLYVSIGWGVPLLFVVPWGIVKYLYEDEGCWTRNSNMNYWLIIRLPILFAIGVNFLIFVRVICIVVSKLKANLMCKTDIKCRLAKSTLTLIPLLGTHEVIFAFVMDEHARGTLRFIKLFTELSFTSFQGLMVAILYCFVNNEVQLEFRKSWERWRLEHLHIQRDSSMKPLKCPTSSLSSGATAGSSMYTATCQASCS

Row | SMILES | EC50 (GLP-1R; [2]) | Predicted Hepatic Clearance (Pred. Cl.) [1] | EC50 (GLP-1R; EC50 (nM))
1 | CC1(Cn2c(Cc3ccc(-c4cccc(OCc5ccc(C#N)cc5F)n4)cc3F)nc3ccc(C(=O)O)nc32)CC1 [Example 18, 2-(4-(6-((4-cyano-2-fluorobenzyl)oxy)pyridin-2-yl)-2-fluorobenzyl)-3-((1-methylcyclopropyl)methyl)-3H-imidazo[4,5-b]pyridine-5-carboxylic acid] | 3.6 nM | 2.5 mL/min/kg | –
2 | COCCn1c(Cc2ccc(-c3cccc(OCc4ccc(C#N)cc4F)n3)c(C)c2)nc2ccc(C(=O)O)cc21 [Example 20, 2-{[4-[6-[(4-cyano-2-fluoro-phenyl)methoxy]-2-pyridyl]-3-methyl-phenyl]methyl}-3-(2-methoxyethyl)benzimidazole-5-carboxylic acid] | – | 2.33 mL/min/kg | 24.1 nM
3 | COCCn1c(Cc2ccc(-c3cccc(OCc4ccc(C#N)cc4F)n3)c(C)c2)nc2ccc(C(=O)O)cc21 [Example 21, 2-(4-(6-((4-cyano-2-fluorobenzyl)oxy)pyridin-2-yl)-3-methylbenzyl)-1-(2-methoxyethyl)-1H-benzo[d]imidazole-6-carboxylic acid] | – | <1.83 mL/min/kg | 70.9 nM
4 | COCCn1c(Cc2ccc(-c3cccc(OCc4ccc(C#N)cc4F)n3)cc2C#N)nc2ccc(C(=O)O)cc21 [Example 22, 2-(2-cyano-4-(6-((4-cyano-2-fluorobenzyl)oxy)pyridin-2-yl)benzyl)-1-(2-methoxyethyl)-1H-benzo[d]imidazole-6-carboxylic acid] | 0.78 nM | 3 mL/min/kg | –
5 | COCCn1c(Cc2ccc(-c3nccc(OCc4ccc(C#N)cc4F)n3)cc2F)nc2ccc(C(=O)O)cc21 [Example 25, 2-{[4-[4-[(4-cyano-2-fluoro-phenyl)methoxy]pyrimidin-2-yl]-2-fluoro-phenyl]methyl}-3-(2-methoxyethyl)benzimidazole-5-carboxylic acid] | 25.9 nM | 7.33 mL/min/kg | –
6 | COCCn1c(Cc2ccc(-c3csc(OCc4ccc(C#N)cc4F)n3)cc2F)nc2ccc(C(=O)O)cc21 [Example 26, 2-(4-(2-((4-cyano-2-fluorobenzyl)oxy)thiazol-4-yl)-2-fluorobenzyl)-1-(2-methoxyethyl)-1H-benzo[d]imidazole-6-carboxylic acid] | 115 nM | 4.67 mL/min/kg | –
7 | COCCn1c(Cc2ccc(-c3cc(F)cc(OCc4ccc(C#N)cc4F)c3)cc2F)nc2ccc(C(=O)O)cc21 [Example 27, 2-((3′-((4-cyano-2-fluorobenzyl)oxy)-3,5′-difluoro-[1,1′-biphenyl]-4-yl)methyl)-1-(2-methoxyethyl)-1H-benzop[d]imidazole-6-carboxylic acid] | 78 nM | 2.5 mL/min/kg | –
8 | COCCn1c(Cc2ccc(-c3cc(OCc4ccc(C#N)cc4F)ccc3F)cc2F)nc2ccc(C(=O)O)cc21 [Example 28, 2-((5′-((4-cyano-2-fluorobenzyl)oxy)-2′,3-difluoro-[1,1′-biphenyl]-4-yl)methyl)-1-(2-methoxyethyl)-1H-benzo[d]imidazole-6-carboxylic acid] | 94 nM | 3.17 mL/min/kg | –
9 | COCCn1c(Cc2ccc(-c3cc(C#N)cc(OCc4ccc(C#N)cc4F)c3)cc2F)nc2ccc(C(=O)O)cc21 [Example 29, 2-((3′-cyano-5′-((4-cyano-2-fluorobenzyl)oxy)-3-fluoro-[1,1′-biphenyl]-4-yl)methyl)-1-(2-methoxyethyl)-1H-benzo[d]imidazole-6-carboxylic acid] | 57 nM | 5.17 mL/min/kg | –
10 | COCCn1c(Cc2ccc(-c3cc(OC)cc(OCc4ccc(C#N)cc4F)c3)cc2F)nc2ccc(C(=O)O)cc21 [Example 30, 2-((3′-((4-cyano-2-fluorobenzyl)oxy)-3-fluoro-5′-methoxy-[1,1′-biphenyl]-4-yl)methyl)-1-(2-methoxyethyl)-1H-benzo[d]imidazole-6-carboxylic acid] | 1350 nM | 4.67 mL/min/kg | –
11 | COCCn1c(Cc2ccc(-c3cc(C)cc(OCc4ccc(C#N)cc4F)n3)cc2F)nc2ccc(C(=O)O)cc21 [Example 31, 2-(4-(6-((4-cyano-2-fluorobenzyl)oxy)-4-methylpyridin-2-yl)-2-fluorobenzyl)-1-(2-methoxyethyl)-1H-benzo[d]imidazole-6-carboxylic acid] | 32 nM | 4.67 mL/min/kg | –
12 | COCCn1c(C2(c3ccc(-c4cccc(OCc5ccc(C#N)cc5F)n4)cc3)CC2)nc2ccc(C(=O)O)cc21 [Example 32, 2-(1-(4-(6-((4-cyano-2-fluorobenzyl)oxy)pyridin-2-yl)phenyl)cyclopropyl)-1-(2-methoxyethyl)-1H-benzo[d]imidazole-6-carboxylic acid] | > 1000 nM | 7.83 mL/min/kg | –

More lines, main results first:

Row | EC50 (GLP-1R; [2]) | Predicted Hepatic Clearance (Pred. Cl.) [1] | SMILES | EC50 (GLP-1R; EC50 (nM))
13 | 26.9 nM | 5 mL/min/kg | COCCn1c(Cc2ccc(-c3cccc(OCc4ccc(C#N)cc4F)n3)cc2OC)nc2ccc(C(=O)O)cc21 [Example 33, 2-(4-(6-((4-cyano-2-fluorobenzyl)oxy)pyridin-2-yl)-2-methoxybenzyl)-1-(2-methoxyethyl)-1H-benzo[d]imidazole-6-carboxylic acid] | –
14 | 2180 nM | 9.83 mL/min/kg | COCCn1c(Cc2ccc(-c3cccc(OCc4ccc(C#N)cc4F)n3)c(C(F)(F)F)c2)nc2ccc(C(=O)O)cc21 [Example 34, 2-(4-(6-((4-cyano-2-fluorobenzyl)oxy)pyridin-2-yl)-3-(trifluoromethyl)benzyl)-1-(2-methoxyethyl)-1H-benzo[d]imidazole-carboxylic acid] | –
15 | 1000 nM | 5.17 mL/min/kg | COCCn1c(Cc2ccc(-c3cccc(OCc4ccc(C#N)cc4F)n3)c3ccccc23)nc2ccc(C(=O)O)cc21 [Example 35, 2-((4-(6-((4-cyano-2-fluorobenzyl)oxy)pyridin-2-yl)naphthalen-1-yl)methyl)-1-(2-methoxyethyl)-1H-benzo[d]imidazole-carboxylic acid] | –
16 | 107 nM | 4 mL/min/kg | COCCn1c(C2CCc3cc(-c4cccc(OCc5ccc(C#N)cc5F)n4)ccc32)nc2ccc(C(=O)O)cc21 (stereo not drawn) [Example 36, 2-(5-(6-((4-cyano-2-fluorobenzyl)oxy)pyridin-2-yl)-2,3-dihydro-1H-inden-1-yl)-1-(2-methoxyethyl)-1H-benzo[d]imidazole-carboxylic acid] | –
17 | 927 nM | 8.67 mL/min/kg | COCCn1c(C2OCCc3cc(-c4cccc(OCc5ccc(C#N)cc5F)n4)ccc32)nc2ccc(C(=O)O)cc21 (stereo not drawn) [Example 37, 2-(6-(6-((4-cyano-2-fluorobenzyl)oxy)pyridin-2-yl)isochroman-1-yl)-1-(2-methoxyethyl)-1H-benzo[d]imidazole-carboxylic acid] | –
18 | 6.18 nM | 5.33 mL/min/kg | COCCn1c(Cc2ccc(-c3cccc(OCc4ccc(C#N)cc4F)n3)cc2Cl)nc2ccc(C(=O)O)cc21 [Example 38, 2-(2-chloro-4-(6-((4-cyano-2-fluorobenzyl)oxy)pyridin-2-yl)benzyl)-1-(2-methoxyethyl)-1H-benzo[d]imidazole-carboxylic acid] | –
